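How tested: cells in 96-well plates exposed to compound for 48 hours at five concentrations. At the TGI there is no net growth.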
Experiments:
Test in all cases: DTP human tumour cell line panel, 48 h
A549 NSCLC = test system: A549 NSCLC
ACHN renal = test system: ACHN renal
CCRF-CEM leukemia = test system: CCRF-CEM leukemia
HL-60(TB) leukemia = test system: HL-60(TB) leukemia
MDA-N = test system: MDA-N
MOLT-4 leukemia = test system: MOLT-4 leukemia
NCI-H522 lung = test system: NCI-H522 lung
NCI/ADR-RES ovarian = test system: NCI/ADR-RES ovarian
OVCAR-4 ovarian = test system: OVCAR-4 ovarian
SK-MEL-5 melanoma = test system: SK-MEL-5 melanoma

SMILES	TGI (A549 NSCLC)	TGI (ACHN renal)	TGI (CCRF-CEM leukemia)	TGI (HL-60(TB) leukemia)	TGI (MDA-N)	TGI (MOLT-4 leukemia)	TGI (NCI-H522 lung)	TGI (NCI/ADR-RES ovarian)	TGI (OVCAR-4 ovarian)	TGI (SK-MEL-5 melanoma)
NS(=O)(=O)c1cc(Cl)c(NC(=S)NC(=O)Nc2ccc(Cl)c(Cl)c2)c(Cl)c1	> 100 µM	> 100 µM	> 100 µM	68.4 µM	> 100 µM	> 100 µM	86.4 µM	> 100 µM	> 100 µM	40.3 µM
COc1cccc2c(=O)oc(-c3ccc(C(C)(C)C)cc3)nc12	> 100 µM	> 100 µM	> 100 µM	44 µM	> 100 µM	48.2 µM	89.6 µM	> 100 µM	> 100 µM	87.4 µM
O=[N+]([O-])c1ccc(Oc2c(Cl)cc(S(=O)(=O)/N=C(\NO)Nc3ccc(Cl)cc3)cc2Cl)cc1	27.8 µM	23.8 µM	24.5 µM	13.7 µM	24.8 µM	21.7 µM	12.7 µM	32.2 µM	17.3 µM	22.2 µM
N=C(N)SCc1ccc2c(c1)Sc1ccccc1O2	23 µM	16.9 µM	> 54.1 µM	> 63 µM	19 µM	> 93.3 µM	3.09 µM	34.6 µM	18.1 µM	3.11 µM
Cc1ccc(S(=O)(=O)N/N=C/C2(c3ccccc3)c3ccccc3-c3ccccc32)cc1	19.8 µM	88.3 µM	> 100 µM	> 100 µM	14.9 µM	> 100 µM	28.6 µM	24.6 µM	24.3 µM	23.9 µM
O=C1NCC2(CCN(CCCC3(c4ccc(F)cc4)OCCO3)CC2)N1c1ccccc1	> 100 µM	> 100 µM	> 100 µM	> 100 µM	> 100 µM	> 100 µM	> 100 µM	> 100 µM	> 100 µM	> 100 µM
Cc1ccc2c(c1)C(=O)C1(Cc3ccccc3C1=O)C2 (stereo not given)	> 100 µM	> 100 µM	> 100 µM	> 100 µM	> 100 µM	> 100 µM	> 100 µM	> 100 µM	> 100 µM	> 100 µM

From PubChem BioAssay (NCI)
